The source of these data is patent US11241437B2, “Heterocyclic compounds, preparation methods and uses thereof” (InventisBio Co., Ltd., priority 2019, dated 2022).

In brackets after ≈: the same amount, converted by molar mass.

Format in all cases: physicochemical
Data set [1] can be described thus: Solubility of Form A and Form B of Compound 2 in bio-relevant media. The conditions noted are these: for solubility at 0.5 h / solubility at 2 h / solubility at 24 h: 37 °C, thermodynamic from solid; for Solubility: 37° C.; for XRPD patterns of remaining solids: FaSSIF and water, at 24 hours.
Protocol: Solubility in Bio-relevant Media: Form A and Form B was added into SGF, FeSSIF, FaSSIF and water, respectively. The suspensions were kept shaking at 37° C. with 200 rpm for 24 hours. At 0.5 h, 2 h and 24 h, suspensions were filtered and drug concentrations of filtrates were analyzed by HPLC. pH of filtrates was measured at each time point. The remaining solids at 24 hours were characterized by XRPD.
A short description of data set [2]: Solid state stability of Form B of Compound 2. As to the method: Method 2. HPLC analysis was performed with an Agilent HPLC 1260 series instrument. A representative HPLC method used for purity, solubility and stability study for Compound 2 analysis.
Solid State Stability of Form B: About 10 mg of Form B was open placed at 40° C./75% RH and 60° C. for 7 days and at 25° C./92.5% RH for 10 days, respectively. Prepare samples in duplicate (n=2) per condition. The solids were analyzed by XRPD and HPLC (only for 40° C./75% RH and 60° C.).

A short description of data set [3]: Dynamic moisture sorption analysis (DVS) of Form B of Compound 2. Here is the method: Method 2. Used for studies with solid state of Compound 2. Moisture sorption/desorption data was collected on IGAsorp Dynamic Moisture Sorption Analyzer. The sample was placed into a tarred sample chamber and automatically weighed. The sample was dried at 50° C. until the humidity was less than 0.3% and cooled to 25° C. The instrument parameters were set as given below.

A short description of data set [4]: Manual grinding of Form A and Form B of Compound 2. The settings on record: ground manually for 5 min. Here is the method:
About 10-20 mg of Compound 2 in Form A and Form B were ground manually for 5 min, respectively.

The nature of data set [5]: Polymorph characterization summary of Compound 1 forms (form stability).
Description: In the polymorph screening, five XRPD Patterns (FIG. 11) were generated, and four forms were identified including 2 anhydrates and 2 hydrates.
The nature of data set [6]: Solubility of Form A of Compound 2 in organic solvents. The conditions noted are these: for Solubility: organic solvent or mixture.
The nature of data set [7]: Interconversion studies of solid forms of Compound 1 (slurry). Here is the method: Interconversion Studies: Equal amounts (˜7 mg) of Form I, II and III were mixed together and then suspended in 0.5 mL of different solvents at room temperature or 50° C., respectively. Residual solids were collected by filtration and characterized at appropriate time. Additionally, Form IV (˜12 mg) was slurried in 0.5 ml, water or MeOH/water (1/4) at RT or 50° C. for 3 days. Residual solids were collected by filtration and analyzed by XRPD.

Another data set in a line: pKa of Compounds 1 and 2.
Data set [8] is described as follows: Solubility of Compound 1 solid forms in bio-relevant media and water. The conditions noted are these: FaSSIF. As to the method:
Solubility Studies: Solubility of Form IV was tested in three bio-relevant media (Simulated Gastric Fluid (SGF), Fasted State Simulated Intestinal Fluid (FaSSIF), and Fed State Simulated Intestinal Fluid (FeSSIF)) and water. […] Form IV (˜10 mg) was weighed into 2 mL of four media to make suspensions respectively, and about 10 mg of the amorphous starting material was also added into 2 mL of FaSSIF. Then all suspensions were shaken at 37° C. with 200 rpm for up to 24 hours. At 0.5, 2 and 24 hours, about 0.7 mL of each suspension was filtered. The filtrate was analyzed by HPLC and pH meter, and the residual solids were also checked by XRPD at 24 hours.

A short description of data set [9]: Solubility of amorphous Compound 1 in solvents (anti-solvent precipitation screening). The settings on record: RT.
Data set [10] in a line: Competitive slurry (interconversion) of Form A, Form B and Form C of Compound 2. The settings on record: RT or 50° C. Here is the method: Interconversion Studies: Competitive slurry of Form A, Form B and Form C was performed in acetone and acetone/water (1/4) at RT or 50° C., with details shown below.

With `C=CC(=O)N1C[C@H](C)N(c2nc(=O)n(-c3c(C4CC4)ncnc3C3CC3)c3nc(-c4c(N)cccc4F)c(F)cc23)C[C@H]1C` (single isomer, unassigned) [Form B], the solubility at 0.5 h in [1] (FaSSIF, pH 6.5, fassif, FaSSIF (pH 6.5), 0.5 h) is 16 µg/mL (≈ 26.7 µM); in data set [1] (FeSSIF, pH 5, fessif, FeSSiF (pH 5.0), 0.5 h), 44 µg/mL (≈ 73.5 µM); in [1] (SGF, pH 1.2, simulated gastric fluid, SGF (pH 1.2), 0.5 h), 60 µg/mL (≈ 100 µM); in [1] (water, 0.5 h), 21 µg/mL (≈ 35.1 µM). Moreover, the solubility at 2 h in data set [1] (FaSSIF, pH 6.5, fassif, FaSSIF (pH 6.5), 2 h) was 51 µg/mL (≈ 85.2 µM); in data set [1] (FeSSIF, pH 5, fessif, FeSSiF (pH 5.0), 2 h), 43 µg/mL (≈ 71.8 µM); in [1] (SGF, pH 1.2, simulated gastric fluid, SGF (pH 1.2), 2 h), 58 µg/mL (≈ 96.9 µM); in data set [1] (water, 2 h), 20 µg/mL (≈ 33.4 µM). Besides, the solubility at 24 h was 18 µg/mL (≈ 30.1 µM) in [1] (FaSSIF, pH 6.5, fassif, FaSSIF (pH 6.5), 24 h) and 37 µg/mL (≈ 61.8 µM) in [1] (FeSSIF, pH 5, fessif, FeSSiF (pH 5.0), 24 h). Also, the Solubility in [1] (SGF (pH 1.2), 24 h) was 56 µg/mL (≈ 93.5 µM); in data set [1] (Water, 24 h), 19 µg/mL (≈ 31.7 µM). For the same molecule, the “XRPD patterns of remaining solids” value in [1] (SGF, FeSSIF) is “unchanged”. The XRPD entry in [2] (25° C./92.5% RH, After 10 d) is reported as “Unchanged”; in [2] (40° C./75% RH, After 7 d) it was “Unchanged”; in data set [2] (60° C., After 7 d), “Unchanged”. The Purity-7 d in data set [2] (40° C./75% RH) was 98.97 Area %; in data set [2] (60° C.), 98.82 Area %. The Purity decrease in [2] (60° C. for 7 days) turned out to be 0.16%. For the same molecule, in data set [2] (initial, before storage), the “Initial Purity” value is reported as 98.98 Area %. Also, the “Crystal form after DVS testing” value in [3] is given as “without changing of crystal form”. Further, in data set [3] (25° C.), the “Hygroscopicity (DVS)” value is listed as “slightly hygroscopic”. For the same molecule, in [3] (at 0-80% RH, 25° C.), the “Water absorbed (DVS)” value was around 0.84%. The “Crystal form after grinding” value in data set [4] is reported as “crystallinity of Form B became weak”.
As to `C=CC(=O)N1C[C@H](C)N(c2nc(=O)n(-c3c(C4CC4)ncnc3C3CC3)c3nc(-c4c(N)cccc4F)c(Cl)cc23)C[C@H]1C` [Form III], the “Stability of the solid form” value in data set [5] is on record as “not stable”.
Consider `C=CC(=O)N1C[C@H](C)N(c2nc(=O)n(-c3c(C4CC4)ncnc3C3CC3)c3nc(-c4c(N)cccc4F)c(F)cc23)C[C@H]1C` (single isomer, unassigned) [Form A], for which the “Solubility in other solvents” value in [6] is reported as “practically insoluble”. Besides, the Solubility was above 92000 µg/mL in data set [6] (DCM, read-out: Solubility in DCM); 20000 to 33000 µg/mL (≈ 33400 to 55100 µM) in data set [6] (MeOH, butanone, THF, ACN, acetone, read-out: Solubility in MeOH, butanone, THF, ACN and acetone); 19 µg/mL (≈ 31.7 µM) in data set [1] (FaSSIF (pH 6.5), 0.5 h); 29 µg/mL (≈ 48.4 µM) in data set [1] (FaSSIF (pH 6.5), 2 h); 24 µg/mL (≈ 40.1 µM) in data set [1] (FaSSIF (pH 6.5), 24 h); 41 µg/mL (≈ 68.5 µM) in data set [1] (FeSSiF (pH 5.0), 0.5 h). The Solubility in data set [1] (FeSSiF (pH 5.0), 2 h) turned out to be 45 µg/mL (≈ 75.2 µM); in data set [1] (FeSSiF (pH 5.0), 24 h), 42 µg/mL (≈ 70.2 µM); in data set [1] (SGF (pH 1.2), 0.5 h), 67 µg/mL (≈ 112 µM); in data set [1] (SGF (pH 1.2), 2 h), 72 µg/mL (≈ 120 µM); in data set [1] (SGF (pH 1.2), 24 h), 170 µg/mL (≈ 284 µM); in [1] (Water, 0.5 h) it was 15 µg/mL (≈ 25.1 µM). Further, the Solubility is 25 µg/mL (≈ 41.8 µM) in [1] (Water, 2 h) and 43 µg/mL (≈ 71.8 µM) in data set [1] (Water, 24 h). Also, in data set [1] (SGF, FeSSIF), the “XRPD patterns of remaining solids” value was “unchanged”. In data set [4], the “Crystal form after grinding” value is on record as “unchanged”.
For `C=CC(=O)N1C[C@H](C)N(c2nc(=O)n(-c3c(C4CC4)ncnc3C3CC3)c3nc(-c4c(N)cccc4F)c(Cl)cc23)C[C@H]1C` [Form I, II and III], the “XRPD of wet cake” value in data set [7] (EA/MTBE (1/4), 50° C., 3 days) is listed as “Form IV”; in data set [7] (EA/MTBE (1/4), RT, 3 days) it was “Form IV”; in [7] (IPA, 50° C., 4 days) it was “Form IV”; in data set [7] (IPA, RT, 3 days) it was “Pattern 1”; in [7] (MeOH/Water (1/4), 50° C., 3 days) it was “Form IV”; in data set [7] (MeOH/Water (1/4), RT, 3 days), “Form II”.
`C=CC(=O)N1C[C@H](C)N(c2nc(=O)n(-c3c(C4CC4)ncnc3C3CC3)c3nc(-c4c(N)cccc4F)c(F)cc23)C[C@H]1C` [Compound 2] registered a pKa in “pKa of Compounds 1 and 2” of around 3.
As for `C=CC(=O)N1C[C@H](C)N(c2nc(=O)n(-c3c(C4CC4)ncnc3C3CC3)c3nc(-c4c(N)cccc4F)c(Cl)cc23)C[C@H]1C` [Amorphous material], the Solubility in data set [8] (37° C., 0.5 h) stood at 302 µg/mL (≈ 491 µM); in data set [8] (37° C., 2 h), 263 µg/mL (≈ 428 µM); in [8] (37° C., 24 h), 283 µg/mL (≈ 460 µM). The “XRPD-24 h of residual solids” value in data set [8] (37° C., 24 h) is reported as “unchanged”. Besides, in [8] (time point not stated, listed as amorphous starting material), the “Solubility in FaSSIF” value is 300 µg/mL (≈ 488 µM). In addition, the “Solubility in MTBE, water and heptane” value in [9] is recorded as “low solubility”. Further, in data set [9], the “Solubility in most solvents” value is recorded as “high solubility”.
In “pKa of Compounds 1 and 2”, `C=CC(=O)N1C[C@H](C)N(c2nc(=O)n(-c3c(C4CC4)ncnc3C3CC3)c3nc(-c4c(N)cccc4F)c(Cl)cc23)C[C@H]1C` [Compound 1] registered a pKa of around 3.
As for `C=CC(=O)N1C[C@H](C)N(c2nc(=O)n(-c3c(C4CC4)ncnc3C3CC3)c3nc(-c4c(N)cccc4F)c(F)cc23)C[C@H]1C` [Form A, Form B and Form C], the “Form after competitive slurry” value in data set [10] (non-aqueous solvent (acetone), after 1 day) is given as “completely converted to Form B”; in [10] (solvent-aqueous solution (acetone/water 1/4), after 7 days), “showed tendency to convert to Form B”.
With `C=CC(=O)N1C[C@H](C)N(c2nc(=O)n(-c3c(C4CC4)ncnc3C3CC3)c3nc(-c4c(N)cccc4F)c(Cl)cc23)C[C@H]1C` [Form II], the “Stability of the solid form” value in data set [5] is “not stable”.

The solubility is the dissolved amount per volume that the medium holds. Usually Solubility stands for how much of the substance goes into solution per volume. One may read the pKa as the negative logarithm of the acid dissociation constant. Read a low pKa as a group that gives up its proton readily.
